According to ChEMBL document CHEMBL1149799, “Bioactive peroxides as potential therapeutic agents” (Eur J Med Chem, 2008):
Values after ≈ are worked out from the molar mass of the structure shown.

How the values were obtained:
KB = assay: Cytotoxicity against human KB cells; format: functional, cell-based; conditions: Homo sapiens
L1210 = assay: Cytotoxicity against mouse L1210 cells; format: functional, cell-based; conditions: Mus musculus, L1210
P388 [1] = assay: Cytotoxicity against mouse P388 cells at 0.05 ug/ml; format: functional
HT-29 = assay: Cytotoxicity against human HT29 cells; format: functional, cell-based; conditions: Homo sapiens, HT-29
MDA-MB-231 = assay: Cytotoxicity against human MDA-MB-231 cells; format: functional, cell-based
A549 = assay: Cytotoxicity against human A549 cells; format: functional, cell-based; conditions: Homo sapiens, A549
[2] = Cytotoxicity against human MEL28 cells; conditions: SK-MEL-28
P388 [3] = assay: Cytotoxicity against mouse P388 cells; format: functional, cell-based; conditions: Mus musculus, P388
DU-145 = assay: Cytotoxicity against human DU145 cells; format: functional, cell-based; conditions: Homo sapiens, DU-145
HCT-116 = assay: Cytotoxicity against human HCT116 cells; format: functional, cell-based
LoVo = assay: Cytotoxicity against human LoVo cells; format: functional

Structure (SMILES) | IC50 (HT-29) | IC50 (A549) | IC50 [2] [µg/mL] | IC50 (P388 [3]) [µg/mL] | IC50 (DU-145) [µg/mL] | other results
CCCCCCCCCCCCCCC[C@@]1(OC)C=C[C@H](CC(=O)OC)OO1 [PLAKORIN] |  |  |  |  |  | IC50 (KB; KB): 1.8 µg/mL (≈ 4.52 µM); IC50 (L1210): 0.85 µg/mL (≈ 2.13 µM); inhibition at 0.05 µg/mL (P388 [1]): 50%
CCCC(CC)CC(C)C[C@]1(CC)C[C@H](CC)[C@H](CC(=O)OC)OO1 (some centres not stated) | 12.3 µM | 14 µM |  |  |  | IC50 (MDA-MB-231): 24.4 µM
C=CCC/C=C\C=C/CCCCCCCC[C@H]1CC[C@@H]([C@@H]2CC[C@@H](CC(=O)O)OO2)O1 [STOLONOXIDE A] | 0.1 µg/mL | 0.1 µg/mL | 0.1 (≈ 0.23 µM) | 0.01 (≈ 0.023 µM) | 0.1 (≈ 0.23 µM) | 
CCCCC(CC)CC(C)C[C@]1(CC)C[C@H](CC)[C@H](CC(=O)OC)OO1 (some centres not stated) [PLAKORITIDE Q ME] | 13 µM | 7.8 µM |  |  |  | IC50 (MDA-MB-231): 18.4 µM
C/C=C/C=C/CCCCCCCCC[C@]1(OC)C=C[C@H](CC(=O)OC)OO1 |  |  |  |  |  | inhibition at 0.05 µg/mL (P388 [1]): 50%
C=CCC/C=C\C=C/CCCCCCCC[C@@H]1CC[C@@H]([C@@H]2CC[C@@H](CC(=O)[O-])OO2)O1.[Na+] | 0.1 µg/mL | 0.1 µg/mL | 0.1 | 0.01 | 0.1 | 
CC(CCCCCCCCc1ccccc1)CC(C)C[C@@]1(C)C[C@](C)(CC(=O)O)OO1 (some centres not stated) [EPIPLAKINIC ACID G] |  |  |  |  |  | IC50 (HCT-116): 0.16 µM
C=CCCC/C=C/C=C\CCCCCCCC[C@H]1CC[C@@H]([C@H]2CC[C@@H](CC(=O)O)OO2)O1 [STOLONOXIDE B] | 0.1 µg/mL | 0.1 µg/mL | 0.1 (≈ 0.223 µM) | 0.05 (≈ 0.111 µM) | 0.1 (≈ 0.223 µM) | 
COC(=O)C[C@@]1(C)C[C@@](C)(CC(C)CCCC/C=C/CC/C=C\c2ccccc2)OO1 (some centres not stated) |  |  |  |  |  | MIC (KB): 0.1 µg/mL (≈ 0.233 µM); IC50 (L1210): 0.29 µg/mL (≈ 0.677 µM); MIC (LoVo): 1 µg/mL (≈ 2.33 µM)
C=CCCC/C=C/C=C\CCCCCCCC[C@H]1CC[C@H]([C@@H]2CC[C@@H](CC(=O)[O-])OO2)O1.[Na+] [STOLONOXIDE D] | 0.05 µg/mL | 0.1 µg/mL | 0.1 | 0.5 | 0.1 | 
C=CCC/C=C\C=C/CCCCCCCC[C@H]1CC[C@H]([C@@H]2CC[C@@H](CC(=O)[O-])OO2)O1.[Na+] [stolonoxide C] | 0.1 µg/mL | 0.1 µg/mL | 0.5 | 0.5 | 0.1 | 
C/C=C/C=C/CCCCCCC[C@]1(OC)C=C[C@H](CC(=O)OC)OO1 |  |  |  |  |  | inhibition at 0.05 µg/mL (P388 [1]): 50%
C=CCCC/C=C/C=C\CCCCCCCC[C@H]1CC[C@H]([C@@H]2CC[C@@H](CC(=O)OC)OO2)O1 | 0.05 µg/mL | 0.01 µg/mL | 0.1 (≈ 0.216 µM) | 0.01 (≈ 0.0216 µM) | 0.1 (≈ 0.216 µM) | 
CC/C=C/C(CC)CC(C)C[C@]1(CC)C[C@H](CC)[C@H](CC(=O)OC)OO1 (some centres not stated) | 12.8 µM | 6.8 µM |  |  |  | IC50 (MDA-MB-231): 4.1 µM
C/C=C/CCCCCCCCC[C@]1(OC)C=C[C@H](CC(=O)OC)OO1 |  |  |  |  |  | inhibition at 0.05 µg/mL (P388 [1]): 50%
COC(=O)C[C@]1(C)C[C@@](C)(CC(C)CCCC/C=C/CC/C=C\c2ccccc2)OO1 (some centres not stated) |  |  |  |  |  | MIC (KB): 1 µg/mL (≈ 2.33 µM); IC50 (L1210): 0.013 µg/mL (≈ 0.0303 µM); MIC (LoVo): 1 µg/mL (≈ 2.33 µM)
CC(CCCCCCCCc1ccccc1)CC(C)C[C@]1(C)C[C@](C)(CC(=O)O)OO1 (some centres not stated) [EPIPLAKINIC ACID H] |  |  |  |  |  | IC50 (HCT-116): 0.39 µM
CCCCC(CC)CC(C)C[C@]1(CC)C[C@H](CC)[C@H](CC(=O)O)OO1 (some centres not stated) [PLAKORITIDE Q] | 3.9 µM | 3.6 µM |  |  |  | IC50 (MDA-MB-231): 9 µM
COC(=O)C[C@@]1(C)C[C@@](C)(CC(C)CC/C=C/CC/C=C/c2ccccc2)OO1 (some centres not stated) |  |  |  |  |  | MIC (KB): 0.1 µg/mL (≈ 0.25 µM); IC50 (L1210): 0.003 µg/mL (≈ 0.00749 µM); MIC (LoVo): 0.1 µg/mL (≈ 0.25 µM)
C=CCC/C=C\C=C/CCCCCCCC[C@@H]1CC[C@@H]([C@@H]2CC[C@@H](CC(=O)OC)OO2)O1 | 0.1 µg/mL | 0.1 µg/mL | 0.1 (≈ 0.223 µM) | 0.05 (≈ 0.111 µM) | 0.1 (≈ 0.223 µM) | 
CC(CC/C=C/CC/C=C/c1ccccc1)C[C@@]1(C)C[C@@](C)(CC(=O)O)OO1 (some centres not stated) [EPIPLAKINIC ACID D] |  |  |  |  |  | MIC (KB): 0.1 µg/mL (≈ 0.259 µM); IC50 (L1210): 0.017 µg/mL (≈ 0.044 µM); MIC (LoVo): 0.1 µg/mL (≈ 0.259 µM)
C=CCC/C=C\C=C/CCCCCCCC[C@H]1CC[C@H]([C@@H]2CC[C@@H](CC(=O)OC)OO2)O1 | 0.05 µg/mL | 0.1 µg/mL | 0.5 (≈ 1.11 µM) | 0.5 (≈ 1.11 µM) | 0.1 (≈ 0.223 µM) | 
